Measurements taken from US20240270821A1, “GIP/GLP1/GCG TRI-RECEPTOR AGONISTS AND USES THEREOF” (priority 2023, published 2024).
Like-named read-outs stand apart in the source and are kept apart here. Starred links: 1 amine or outer side, 2 acyl side, 3 side chain; linkers in the order of their positions; H or OH if unused. Non-standard residues stand in square brackets, D forms with d. Groups on a side chain read outwards from the residue. *: point of attachment. C18 diacid = O=C(O)CCCCCCCCCCCCCCCCC(=O)*; γGlu = O=C(O)[C@H](CCC(=O)[*:2])N[*:1]; αMe4Pal = C[C@](N)(Cc1ccncc1)C(=O)O; 4Pal = N[C@@H](Cc1ccncc1)C(=O)O; αMeL = CC(C)C[C@](C)(N)C(=O)O; Aib = CC(C)(N)C(=O)O

What was measured:
Format in all cases: cell-based
hGIPR [1] = target: T1, hGIPR (Homo sapiens, UniProt P48546); assay: Functional cAMP activity in the presence of 1% HSA; settings: read-out: cAMP Rel EC50, hGIPR
T1 sequence (P48546 22-466): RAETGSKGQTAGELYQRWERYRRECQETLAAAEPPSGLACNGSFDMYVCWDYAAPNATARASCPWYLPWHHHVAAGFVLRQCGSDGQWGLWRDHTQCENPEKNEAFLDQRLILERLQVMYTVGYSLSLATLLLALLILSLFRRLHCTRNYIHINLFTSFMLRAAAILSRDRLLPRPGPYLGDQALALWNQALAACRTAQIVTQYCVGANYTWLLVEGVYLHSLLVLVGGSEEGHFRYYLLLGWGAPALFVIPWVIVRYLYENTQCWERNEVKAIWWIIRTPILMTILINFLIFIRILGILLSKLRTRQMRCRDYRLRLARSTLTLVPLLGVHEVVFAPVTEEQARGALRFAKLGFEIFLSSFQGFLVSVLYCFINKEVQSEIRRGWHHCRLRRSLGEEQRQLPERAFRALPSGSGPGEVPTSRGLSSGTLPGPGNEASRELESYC

hGLP-1R [2] = target: T2, hGLP-1R (Homo sapiens, UniProt P43220); assay: Functional cAMP activity in the presence of 1% HSA; settings: read-out: cAMP Rel EC50, hGLP-1R
T2 sequence (P43220 24-463): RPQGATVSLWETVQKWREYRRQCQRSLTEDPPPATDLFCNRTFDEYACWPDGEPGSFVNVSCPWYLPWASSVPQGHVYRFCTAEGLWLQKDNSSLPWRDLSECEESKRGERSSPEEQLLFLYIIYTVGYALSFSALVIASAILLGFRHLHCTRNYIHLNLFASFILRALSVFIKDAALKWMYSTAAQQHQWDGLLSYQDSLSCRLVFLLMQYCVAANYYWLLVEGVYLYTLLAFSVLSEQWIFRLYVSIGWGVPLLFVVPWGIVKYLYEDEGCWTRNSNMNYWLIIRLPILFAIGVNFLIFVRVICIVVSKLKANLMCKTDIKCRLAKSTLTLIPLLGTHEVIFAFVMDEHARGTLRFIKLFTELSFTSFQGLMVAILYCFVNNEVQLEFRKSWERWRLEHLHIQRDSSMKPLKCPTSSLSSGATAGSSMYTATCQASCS

human GcgR = human GcgR (Homo sapiens, UniProt P47871); assay: Functional cAMP activity in the presence of 1% HSA; settings: read-out: cAMP Rel EC50, hGcgR
Sequence of human GcgR (P47871 26-477): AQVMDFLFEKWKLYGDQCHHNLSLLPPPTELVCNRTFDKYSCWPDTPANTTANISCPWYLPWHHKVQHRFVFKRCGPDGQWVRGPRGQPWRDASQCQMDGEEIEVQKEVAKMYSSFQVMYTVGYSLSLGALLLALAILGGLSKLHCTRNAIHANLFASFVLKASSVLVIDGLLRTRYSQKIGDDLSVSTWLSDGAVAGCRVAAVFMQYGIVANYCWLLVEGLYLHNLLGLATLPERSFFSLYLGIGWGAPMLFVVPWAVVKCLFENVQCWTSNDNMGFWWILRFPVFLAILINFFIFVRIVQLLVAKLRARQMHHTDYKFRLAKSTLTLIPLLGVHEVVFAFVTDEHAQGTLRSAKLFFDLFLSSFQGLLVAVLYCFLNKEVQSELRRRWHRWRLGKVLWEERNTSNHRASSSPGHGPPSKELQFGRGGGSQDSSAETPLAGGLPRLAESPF

hGIPR [3] = target: T1, hGIPR; assay: Functional cAMP activation in the presence of 0.1% casein (no HSA); settings: in the presence of 0.1% casein (no HSA); geometric mean; read-out: Relative cAMP EC50, hGIPR;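 as to Relative cAMP EC50, hGIPR: intracellular cAMP rise after 30 min at 37 °C read by HTRF against a standard curve, scaled between buffer alone (0%) and top control ligand concentration (100%), four-parameter fit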;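 as to Relative cAMP EC50, hGLP-1R: intracellular cAMP rise after 30 min at 37 °C read by HTRF, normalized between buffer only (0%) and maximal control ligand (100%), four-parameter variable-slope fit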;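 as to Relative cAMP EC50, hGcgR: intracellular cAMP rise after 30 min at 37 °C, read by HTRF against a cAMP standard curve, scaled from buffer only (0%) to maximal control ligand response (100%)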
hGLP-1R [4] = target: T2, hGLP-1R; assay: as above; settings: in the presence of 0.1% casein (no HSA); geometric mean; read-out: Relative cAMP EC50, hGLP-1R
hGcgR = hGcgR (Homo sapiens, UniProt P47871); assay: as above; settings: in the presence of 0.1% casein (no HSA); geometric mean; read-out: Relative cAMP EC50, hGcgR;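 also: intracellular cAMP rise after 30 min at 37 °C, read by HTRF against a cAMP standard curve, scaled from buffer only (0%) to maximal control ligand response (100%)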
Sequence of hGcgR (P47871 26-477): as above

[5] = HEK-293 clonal cell line, in the presence of 1% HSA, geometric mean of relative EC50

| Substance | EC50 (hGIPR [1]) | EC50 (hGLP-1R [2]) | EC50 (human GcgR) | EC50 (hGIPR [3]) | EC50 (hGLP-1R [4]) | EC50 (hGcgR) | EC50 (hGIPR [1]; [5]) | EC50 (hGLP-1R [2]; [5]) | EC50 (human GcgR; [5]) |
| --- | --- | --- | --- | --- | --- | --- | --- | --- | --- |
| H-Y[Aib]QGTFTSD[4Pal]SQ[αMeL]LDKK([γGlu-γGlu-C18 diacid])AQ[αMe4Pal]AFIEYLIE[Aib]GPSSGAPPPSGE-NH2 [Example 882] | 26.6 nM | 361 nM | 559 nM | 0.129 nM | 2.33 nM | 2.73 nM |  |  |  |
| H-Y[Aib]QGTFTSD[4Pal]SQ[αMeL]LDKK([γGlu-γGlu-C18 diacid])AQ[αMe4Pal]AFIEYLIE[Aib]GPSSGAPPPSGSE-NH2 [Example 890] | 14.2 nM | 290 nM | 559 nM | 0.113 nM | 3.19 nM | 4.73 nM |  |  |  |
| H-Y[Aib]QGTFTSD[4Pal]SQ[αMeL]LDKK([γGlu-γGlu-C18 diacid])AQ[αMe4Pal]AFIEYLIE[Aib]GPSSGAPPPSGSEE-NH2 [Example 899] | 15.6 nM | 592 nM | 814 nM | 0.133 nM | 4.11 nM | 4.4 nM |  |  |  |
| H-Y[Aib]QGTFTSD[4Pal]SQ[αMeL]LDKK([γGlu-γGlu-C18 diacid])AQ[αMe4Pal]AFIEYLIE[Aib]GPSSGAPPPSGSEEE-NH2 [Example 900] | 17 nM | 666 nM | 885 nM | 0.173 nM | 3.99 nM | 4.74 nM |  |  |  |
| H-Y[Aib]QGTFTSD[4Pal]SQ[αMeL]LDKK([γGlu-γGlu-C18 diacid])AQ[αMe4Pal]AFIEYLIE[Aib]GPSSGAPPPSGSGE-NH2 [Example 891] | 16 nM | 330 nM | 581 nM | 0.155 nM | 3.25 nM | 3.14 nM |  |  |  |
| H-Y[Aib]QGTFTSD[4Pal]SQ[αMeL]LDKK([γGlu-γGlu-C18 diacid])AQ[αMe4Pal]AFIEYLIE[Aib]GPSSGAPPPSGTE-NH2 [Example 1126] | 13.5 nM | 208 nM | 452 nM | 0.174 nM | 4.56 nM | 3.92 nM |  |  |  |
| H-Y[Aib]QGTFTSD[4Pal]SQ[αMeL]LDKK([γGlu-γGlu-C18 diacid])AQ[αMe4Pal]AFIEYLIE[Aib]GPSSGAPPPSGTGE-NH2 [Example 1127] |  |  |  | 0.167 nM | 6.16 nM | 5.95 nM | 7.72 nM | 234 nM | 425 nM |
| H-Y[Aib]QGTFTSD[4Pal]SQ[αMeL]LDKK([γGlu-γGlu-C18 diacid])AQ[αMe4Pal]AFIEYLLAGGPSSGAPPPSGSEE-NH2 [Example 1036] | 13 nM | 1080 nM | 353 nM | 0.114 nM | 6.87 nM | 2.05 nM |  |  |  |
| H-Y[Aib]QGTFTSD[4Pal]SQ[αMeL]LDKK([γGlu-γGlu-C18 diacid])AQ[αMe4Pal]AFIE[αMe4Pal]LIEGGPSSGAPPPSGS-NH2 [Example 951] | 18.2 nM | 382 nM | 657 nM | 0.156 nM | 2.61 nM | 5.73 nM |  |  |  |
| H-Y[Aib]QGTFTSD[4Pal]SQ[αMeL]LDKK([γGlu-γGlu-C18 diacid])AQ[αMe4Pal]AFIE[αMe4Pal]LIEGGPSSGAPPPSGSEE-NH2 [Example 957] | 25 nM | 747 nM | 947 nM | 0.213 nM | 5.01 nM | 4.18 nM |  |  |  |
| H-Y[Aib]QGTFTSD[4Pal]SQ[αMeL]LDKK([γGlu-γGlu-C18 diacid])AQ[αMe4Pal]AFIE[αMe4Pal]LIE[Aib]GPSSGAPPPSGE-NH2 [Example 1120] | 9.21 nM | 171 nM | 291 nM | 0.096 nM | 4.5 nM | 5.17 nM |  |  |  |
| H-Y[Aib]QGTFTSD[4Pal]SQ[αMeL]LDKK([γGlu-γGlu-C18 diacid])AQ[αMe4Pal]AFIE[αMe4Pal]LIE[Aib]GPSSGAPPPSGTGE-NH2 [Example 1119] | 3.95 nM | 152 nM | 237 nM | 0.0939 nM | 3.57 nM | 7.61 nM |  |  |  |
